pIC50: −log10 of the molar value.

The target of one test is T1, Mer (Homo sapiens, UniProt Q12866).
T1 construct: host or cells: 293A cells (Thermo Fisher #R70507)
T1 sequence (Q12866 21-999): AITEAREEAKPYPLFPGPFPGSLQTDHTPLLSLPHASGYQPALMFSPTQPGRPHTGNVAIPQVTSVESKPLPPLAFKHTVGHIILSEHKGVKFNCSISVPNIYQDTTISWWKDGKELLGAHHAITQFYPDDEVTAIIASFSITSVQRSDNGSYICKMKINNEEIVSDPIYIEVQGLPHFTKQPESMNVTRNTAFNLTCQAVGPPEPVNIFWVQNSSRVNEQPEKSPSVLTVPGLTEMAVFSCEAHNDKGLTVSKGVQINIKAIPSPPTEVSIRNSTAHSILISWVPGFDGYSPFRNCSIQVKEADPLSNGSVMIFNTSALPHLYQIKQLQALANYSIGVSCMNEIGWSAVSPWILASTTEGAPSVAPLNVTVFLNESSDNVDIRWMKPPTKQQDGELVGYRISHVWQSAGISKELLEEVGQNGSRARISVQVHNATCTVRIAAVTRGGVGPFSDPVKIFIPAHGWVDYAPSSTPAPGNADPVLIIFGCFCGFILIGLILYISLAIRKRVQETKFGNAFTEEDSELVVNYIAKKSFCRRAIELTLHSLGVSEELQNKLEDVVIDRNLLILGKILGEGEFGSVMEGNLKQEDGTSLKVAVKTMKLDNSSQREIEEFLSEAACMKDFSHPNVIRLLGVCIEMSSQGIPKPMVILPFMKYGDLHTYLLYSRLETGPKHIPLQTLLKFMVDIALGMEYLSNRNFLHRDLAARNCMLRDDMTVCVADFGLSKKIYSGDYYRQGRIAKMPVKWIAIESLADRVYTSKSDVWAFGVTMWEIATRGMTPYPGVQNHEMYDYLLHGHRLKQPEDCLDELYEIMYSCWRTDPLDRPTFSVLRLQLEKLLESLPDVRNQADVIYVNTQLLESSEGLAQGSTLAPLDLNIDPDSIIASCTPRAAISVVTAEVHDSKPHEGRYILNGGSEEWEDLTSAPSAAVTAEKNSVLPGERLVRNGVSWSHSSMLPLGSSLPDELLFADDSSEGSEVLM
Description: Mer autophosphorylation ELISA in transient transfected 293A cells. It is filed as cell-based. The following applies: Table 3 Cellular Activities; MERTK-transfected 293A cells, phospho-Mer ELISA. In a few lines: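 293A cells transiently transfected with human MERTK DNA, replated after 24 h, then treated 1 h with 8-point compound dilutions in serum-free medium (0.3% DMSO). Lysates assayed by phospho-Mer sandwich ELISA against phospho-Mer standard; DMSO = 100%, reference inhibitor = 0% activity; IC50 by 4-parameter logistic fit.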

Another test deals with KDR (Homo sapiens, UniProt P35968). Description: KDR autophosphorylation ELISA in HUVEC cells. It is filed as cell-based. On the set-up: endogenous in cells; host or cells: HUVEC (Lonza #C2519A). The conditions noted are these: Table 3 Cellular Activities, VEGF165-stimulated, phospho-KDR ELISA. Put shortly:
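HUVEC, 24 h serum-free starvation; cpd 8-pt dilution, 0.3% DMSO final, 1 h; VEGF165 100 ng/mL, 5 min; cold lysis; phospho-KDR ELISA; IC50, 4PL.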

Sequence of KDR (P35968 20-1356): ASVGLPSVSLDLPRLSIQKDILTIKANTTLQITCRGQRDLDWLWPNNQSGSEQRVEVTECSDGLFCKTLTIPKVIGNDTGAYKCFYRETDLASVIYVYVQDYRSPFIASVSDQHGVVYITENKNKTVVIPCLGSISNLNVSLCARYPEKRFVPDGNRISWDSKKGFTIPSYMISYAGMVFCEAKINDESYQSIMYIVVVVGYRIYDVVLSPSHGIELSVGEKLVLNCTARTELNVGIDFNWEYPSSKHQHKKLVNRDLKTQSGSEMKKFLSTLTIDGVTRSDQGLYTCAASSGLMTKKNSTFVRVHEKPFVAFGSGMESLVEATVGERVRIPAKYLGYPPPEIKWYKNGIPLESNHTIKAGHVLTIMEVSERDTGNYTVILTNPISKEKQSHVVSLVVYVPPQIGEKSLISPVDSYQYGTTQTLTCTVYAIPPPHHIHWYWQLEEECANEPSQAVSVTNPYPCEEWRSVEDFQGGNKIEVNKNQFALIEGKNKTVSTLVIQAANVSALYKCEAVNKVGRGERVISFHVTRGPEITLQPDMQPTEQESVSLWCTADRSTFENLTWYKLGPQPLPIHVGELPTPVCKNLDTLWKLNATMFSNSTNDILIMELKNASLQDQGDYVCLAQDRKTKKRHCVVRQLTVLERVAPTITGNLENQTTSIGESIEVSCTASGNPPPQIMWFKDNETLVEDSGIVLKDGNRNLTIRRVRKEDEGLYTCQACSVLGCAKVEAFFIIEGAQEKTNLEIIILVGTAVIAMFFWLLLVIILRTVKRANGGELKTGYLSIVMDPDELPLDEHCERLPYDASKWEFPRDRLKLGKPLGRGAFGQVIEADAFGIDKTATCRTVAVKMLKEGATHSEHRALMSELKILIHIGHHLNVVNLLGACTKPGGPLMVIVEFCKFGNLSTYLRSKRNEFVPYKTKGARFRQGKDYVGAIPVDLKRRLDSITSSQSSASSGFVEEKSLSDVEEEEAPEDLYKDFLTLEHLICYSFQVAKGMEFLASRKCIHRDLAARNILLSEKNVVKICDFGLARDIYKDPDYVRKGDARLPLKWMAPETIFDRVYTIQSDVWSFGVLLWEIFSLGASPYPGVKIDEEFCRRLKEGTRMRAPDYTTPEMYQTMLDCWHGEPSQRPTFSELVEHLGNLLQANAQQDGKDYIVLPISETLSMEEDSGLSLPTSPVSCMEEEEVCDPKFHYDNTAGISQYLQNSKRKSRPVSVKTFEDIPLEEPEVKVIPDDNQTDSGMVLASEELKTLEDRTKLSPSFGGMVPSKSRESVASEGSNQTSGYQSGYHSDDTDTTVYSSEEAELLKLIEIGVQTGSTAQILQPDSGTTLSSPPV

Turning to `COc1ccc2nccc(Oc3ccc(NC(=O)c4ccc(C)n(-c5ncc(F)cc5C)c4=O)cc3F)c2n1` [Compound 53, N-[3-Fluoro-4-[(6-methoxy-1,5-naphthyridin-4-yl)oxy]phenyl]-1-(5-fluoro-3-methylpyridin-2-yl)-6-methyl-2-oxopyridine-3-carboxamide], the pIC50 against Mer and against KDR was no less than 7.00 in each case.

As for `COc1cc2nccc(Oc3ccc(NC(=O)c4c(C)nc(C)c(-c5ccc(F)cn5)c4O)cc3)c2nc1OC` [Compound 216, N-[4-[(6,7-Dimethoxy-1,5-naphthyridin-4-yl)oxy]phenyl]-5-(5-fluoropyridin-2-yl)-4-hydroxy-2,6-dimethylpyridine-3-carboxamide], the pIC50 at Mer and against KDR was no less than 7.00 each time.

For `COc1cc2nccc(Oc3ccc(NC(=O)c4c(C)n(C)c(C)c(-c5coc6ccccc56)c4=O)cc3F)c2nc1OC` [Compound 262, 5-(1-Benzofuran-3-yl)-N-[4-[(6,7-dimethoxy-1,5-naphthyridin-4-yl)oxy]-3-fluorophenyl]-1,2,6-trimethyl-4-oxopyridine-3-carboxamide], the pIC50 on Mer is no less than 7.00; against KDR, 6.00 to 6.52.

Turning to `COc1cc2nccc(Oc3ccc(NC(=O)c4cn(CCF)c(C)c(-c5cccs5)c4=O)cc3F)c2nc1OC` [Compound 327, N-[4-[(6,7-Dimethoxy-1,5-naphthyridin-4-yl)oxy]-3-fluorophenyl]-1-(2-fluoroethyl)-6-methyl-4-oxo-5-thiophen-2-ylpyridine-3-carboxamide], the results for the pIC50 against Mer and against KDR were no less than 7.00 and 6.52 to 7.00, respectively.

Turning to `COc1cc2nccc(Oc3ccc(NC(=O)c4c5n(c(C)c(-c6ccsc6)c4=O)CCOC5)cc3F)c2nc1OC` [Compound 307, N-[4-[(6,7-Dimethoxy-1,5-naphthyridin-4-yl)oxy]-3-fluorophenyl]-6-methyl-8-oxo-7-thiophen-3-yl-3,4-dihydro-1H-pyrido[2,1-c][1,4]oxazine-9-carboxamide], the figures for the pIC50 against Mer and against KDR were no less than 7.00 and 6.52 to 7.00, respectively.

As for `COc1cnc2c(Oc3ccc(NC(=O)c4cnc(C)c(-c5cccs5)c4O)cc3)ccnc2c1` [Compound 257, 4-Hydroxy-N-[4-[(7-methoxy-1,5-naphthyridin-4-yl)oxy]phenyl]-6-methyl-5-thiophen-2-ylpyridine-3-carboxamide], the negative logarithm of the IC50 (pIC50) against Mer and at KDR was no less than 7.00 throughout.

On to `COc1cc2nccc(Oc3ccc(NC(=O)c4ccc(C)n(-c5ccc(F)cn5)c4=O)cc3)c2nc1OC` [Compound 44, N-[4-[(6,7-Dimethoxy-1,5-naphthyridin-4-yl)oxy]phenyl]-1-(5-fluoropyridin-2-yl)-6-methyl-2-oxopyridine-3-carboxamide], for which the pIC50 on Mer and against KDR was no less than 7.00 throughout.

Turning to `COc1cc2nccc(Oc3ccc(NC(=O)c4cnc(C)c(-c5ccco5)n4)cc3F)c2nc1OC` [Compound 269, N-[4-[(6,7-Dimethoxy-1,5-naphthyridin-4-yl)oxy]-3-fluorophenyl]-6-(furan-2-yl)-5-methylpyrazine-2-carboxamide], the figures for the pIC50 against Mer and against KDR were no less than 7.00 and 6.00 to 6.52, respectively.

Take `Cc1ccc(C(=O)Nc2ccc(Oc3ccnc4cccnc34)c(F)c2)c(=O)n1-c1ccc(F)cn1` [Compound 48, N-[3-Fluoro-4-(1,5-naphthyridin-4-yloxy)phenyl]-1-(5-fluoropyridin-2-yl)-6-methyl-2-oxopyridine-3-carboxamide]: the pIC50 at Mer is no less than 7.00; against KDR, 6.00 to 6.52.

Take `COc1ccc2nccc(Oc3ccc(NC(=O)c4ccc(C)n(-c5ccc(F)cn5)c4=O)cc3F)c2c1` [Compound 49, N-[3-Fluoro-4-(6-methoxyquinolin-4-yl)oxyphenyl]-1-(5-fluoropyridin-2-yl)-6-methyl-2-oxopyridine-3-carboxamide]: the pIC50 against Mer and against KDR was no less than 7.00 in each case.

On to `COc1cc2nccc(Oc3ccc(NC(=O)c4ccc(C)n(-c5ccc(F)cn5)c4=O)cc3F)c2nc1OC` [Compound 43, N-[4-[(6,7-Dimethoxy-1,5-naphthyridin-4-yl)oxy]-3-fluorophenyl]-1-(5-fluoropyridin-2-yl)-6-methyl-2-oxopyridine-3-carboxamide], for which the pIC50 at Mer and against KDR was no less than 7.00 in each case.

As a reminder, the pIC50 is the IC50 on a negative log10 scale, so that one unit is a factor of ten. The low end stands for a high IC50, the high end for a low IC50.

The values above are taken from patent US20230151003A1, “COMPOUNDS AND METHODS OF USE” (Exelixis, Inc., priority 2020, published 2023).
